Data from patent US20100087476A1, “PHARMACEUTICAL COMPOUNDS” (Biovail Laboratories International (Barbados) S.R.L., priority 2008, published 2010).

Key:
Type in all cases: in vivo, BALB/c mice
OVA-sensitised mice [1] = experiment: Differential cell counts in bronchial lavage fluid (BAL), chicken ovalbumin parenteral sensitization model of asthma
Description: (§1) An animal model of asthma was used in this study that included parenteral sensitisation of mice with chicken ovalbumin (OVA) together with a suitable adjuvant (Alum). Ovalbumin is widely used as an antigen as a result of its availability and ability to induce a good Th2-type immune response due to lack of any previous exposure to this antigen. Repeated aerosol exposure to ovalbumin post-sensitisation triggers airway changes leading to hyper-responsiveness, similar to that seen in asthma. These changes can be measured following challenge with a bronchoconstricting agent such as methacholine and analysed using whole body plethysmography. Pulmonary plethysmography is used to measure the functional residual capacity (FRC) of the lungs—the volume in the lungs when the muscles of respiration are relaxed—and total lung capacity. The degree of bronchochonstriction (BHR) can be expressed as enhanced pause (Pen H), a calculated value which correlates with measurement of airway resistance, impedance and intrapleural pressure in the same mouse.
In addition, allergy can by analysed by examination of changes in the lung and lung fluid. This can be achieved by histopathological analysis of lung tissue and analysis of the cellular infiltrate in bronchial lavage fluid (BAL). Further, additional markers of allergy such as the presence of cytokines associated with allergy, IL-4 and IL-13 can be analysed in the BAL fluid.
(§2) Groups of 8 BALB/c mice aged between 5 and 8 weeks of age were sensitised by i.p. (intraperitoneal) injection with ovalalbumin (OVA) in alum on days 0 and 14 (except Group A). All animals were challenged by aerosol exposure to 5% OVA for 20 minutes daily from days 18 to 23. Treatments were given by oral gavage twice daily from day 14 to day 24. At termination (day 24), all animals were subjected to unrestrained whole body plethysmography (whole-body plethysmograph Buxco Electronics, Troy, US) during exposure to increasing doses of methacholine leading to bronchoconstriction and hyper-responsiveness. These changes can be measured using the Buxco software to determine the PenH values for each animal. BAL fluids were collected and cytospins prepared and counted differentially for the presence of infiltrating cells. The supernatant from the BAL was retained and stored at ^−80° C. for possible cytokine analysis. […]
Mice were terminated by i.p. injection of euthatal, the trachea exposed and cells obtained from the lungs by performing bronchoalveolar lavage, 3×0.4 ml with PBS. The lavage was pooled, cells counted using a nucleocounter, pelletted and resuspended at 5×10^5 cells per ml. […]
A minimum of 5 areas were counted on each slide. Each cell type was counted and percentage cell numbers determined From this the number of cells/BAL was determined.

OVA-sensitised mice [2] = experiment: Unrestrained whole body plethysmography (PenH) during methacholine exposure, chicken ovalbumin parenteral sensitization model of asthma
Description: as §1
Pen H is calculated from the relationship Pen H=(Te/Tr−1)×(Pef/Pif) where;
as §2

OVA-sensitised mice [3] = experiment: Lung histopathology scores (pulmonary inflammation), chicken ovalbumin parenteral sensitization model of asthma; settings: 1 to 20 mg/kg twice daily oral gavage; probable dose-effect
Protocol: Groups of 8 BALB/c mice aged between 5 and 8 weeks of age were sensitised by i.p. (intraperitoneal) injection with ovalalbumin (OVA) in alum on days 0 and 14 (except Group A). All animals were challenged by aerosol exposure to 5% OVA for 20 minutes daily from days 18 to 23. Treatments were given by oral gavage twice daily from day 14 to day 24. At termination (day 24), all animals were subjected to unrestrained whole body plethysmography (whole-body plethysmograph Buxco Electronics, Troy, US) during exposure to increasing doses of methacholine leading to bronchoconstriction and hyper-responsiveness. These changes can be measured using the Buxco software to determine the PenH values for each animal. BAL fluids were collected and cytospins prepared and counted differentially for the presence of infiltrating cells. The supernatant from the BAL was retained and stored at ^−80° C. for possible cytokine analysis. Further, lungs were removed and placed in 10% buffered formalin for possible histopathology. […] The HE-stained sections were assessed for lung inflammation. Each lung was scored as described below. Samples were scored in blinded fashion, without knowledge of the experimental protocol or identity of groups. A semi-quantitative grading system was used to describe the degree of inflammatory change in the lungs. Descriptive comments (nature of cellular infiltration) were also recorded. […]

[4] = across 1, 10 and 20 mg/kg twice daily oral gavage, day 14-24
[5] = highest dose, 20 mg/kg twice daily oral gavage (Group E)
[6] = two lower doses (1 and 10 mg/kg twice daily oral gavage, Groups C and D)

**Q.** For `COc1cc2c(cc1OC)[C@H]1C[C@H](O)[C@@H](CC(C)C)CN1CC2` (single isomer, unassigned) [Isomer B], which “levels of eosinophil infiltration into the lung” value (OVA-sensitised mice [1]; [4]) is on record?
**A.** dose dependent effect

**Q.** And the “effect on lung cell infiltration” value (OVA-sensitised mice [1]; [5])?
**A.** small

**Q.** What about the “eosinophil numbers in the BAL” value (OVA-sensitised mice [1]; [5]) of the same molecule?
**A.** associated reduction in eosinophil numbers in the BAL

**Q.** What about the “levels of eosinophil infiltration into the lung” value (OVA-sensitised mice [1]; [6]) of the same molecule?
**A.** no clear difference between treated and untreated animals

**Q.** What about the “PenH response to methacholine” value (OVA-sensitised mice [2]; [4]) of the same molecule?
**A.** dose dependent effect

**Q.** What about the “airway hyper-responsiveness (PenH)” value (OVA-sensitised mice [2]; [5]) of the same molecule?
**A.** reduced airway hyper-responsiveness to levels just above those of the budesonide controls

**Q.** What about the “PenH response to methacholine” value (OVA-sensitised mice [2]; [6]) of the same molecule?
**A.** no clear difference between treated and untreated animals

**Q.** And the “lung pathology (mean group histopathological score)” value (OVA-sensitised mice [3])?
**A.** significant amelioration of pathology
